Source: ChEMBL document CHEMBL4673293, “Trypanocidal activity of new 1,6-diphenyl-1H-pyrazolo[3,4-b]pyridine derivatives: Synthesis, in vitro and in vivo studies” (Bioorg Med Chem, 2021)
Active and inactive are the calls of the source. The rule behind the calls is not given here.

Tested on: Trypanosoma cruzi
Assay: Potency index, ratio of benznidazole IC50 to test compound IC50 for antitrypanosomal activity against intracellular amastigote form of Trypanosoma cruzi Tulahuen strain infected in monkey LLC-MK2 cells assessed as reduction in parasite viability incubated for 72 hrs by beta-galactosidase reporter gene assay
Assay type: functional
Conditions: not given

Row | SMILES | Ratio IC50
1 | Cc1nn(-c2ccccc2)c2nc(-c3ccccc3)cc(C(=O)N/N=C/c3ccccc3O)c12 | 4

Tested on: not listed separately
Assay: Reduction in inflammatory cell infiltration in heart of BALB/c mouse infected with blood trypomastigote form of Trypanosoma cruzi strain Y at 25 mg/kg, po administered via gavage daily for 15 days starting from 2 days post-infection and measured on 16th day post-infection by haematoxylin and eosin staining based microscopic analysis relative to control
Assay type: functional
Conditions: 360 h, time 15 day

Row | SMILES | inhibition in vivo at 25 mg/kg
2 | Cc1nn(-c2ccccc2)c2nc(-c3ccccc3)cc(C(=O)N/N=C/c3ccccc3O)c12 | 62.5%
3 | O=C(Cn1ccnc1[N+](=O)[O-])NCc1ccccc1 [BENZNIDAZOLE] | 76%
4 | CC(=O)Oc1ccccc1C1OC(c2cc(-c3ccccc3)nc3c2c(C)nn3-c2ccccc2)=NN1C(C)=O (stereo not drawn) | 51%

Tested on: not listed separately
Assay: Hepatotoxicity in BALB/c mouse infected with blood trypomastigote form of Trypanosoma cruzi strain Y assessed as AST level in plasma at 25 mg/kg, po administered via gavage daily for 15 days starting from 2 days post-infection and measured on 16th day post-infection
Assay type: toxicity, organism-based
Conditions: in vivo, 360 h, time 15 day

Row | SMILES | Activity
5 | Cc1nn(-c2ccccc2)c2nc(-c3ccccc3)cc(C(=O)N/N=C/c3ccccc3O)c12 | Non-Toxic
6 | O=C(Cn1ccnc1[N+](=O)[O-])NCc1ccccc1 [BENZNIDAZOLE] | Non-Toxic
7 | CC(=O)Oc1ccccc1C1OC(c2cc(-c3ccccc3)nc3c2c(C)nn3-c2ccccc2)=NN1C(C)=O (stereo not drawn) | Non-Toxic

Tested on: not listed separately
Assay: Hepatotoxicity in BALB/c mouse infected with blood trypomastigote form of Trypanosoma cruzi strain Y assessed as ALT level in plasma at 25 mg/kg, po administered via gavage daily for 15 days starting from 2 days post-infection and measured on 16th day post-infection
Assay type: toxicity, organism-based
Conditions: in vivo, 360 h, time 15 day

Row | SMILES | Activity
8 | Cc1nn(-c2ccccc2)c2nc(-c3ccccc3)cc(C(=O)N/N=C/c3ccccc3O)c12 | Non-Toxic
9 | O=C(Cn1ccnc1[N+](=O)[O-])NCc1ccccc1 [BENZNIDAZOLE] | Non-Toxic
10 | CC(=O)Oc1ccccc1C1OC(c2cc(-c3ccccc3)nc3c2c(C)nn3-c2ccccc2)=NN1C(C)=O (stereo not drawn) | Non-Toxic

Tested on: not listed separately
Assay: Renal toxicity in BALB/c mouse infected with blood trypomastigote form of Trypanosoma cruzi strain Y assessed as creatinine level in plasma at 25 mg/kg, po administered via gavage daily for 15 days starting from 2 days post-infection and measured on 16th day post-infection
Assay type: organism-based
Conditions: in vivo, 360 h, time 15 day

Row | SMILES | Activity
11 | Cc1nn(-c2ccccc2)c2nc(-c3ccccc3)cc(C(=O)N/N=C/c3ccccc3O)c12 | Non-Toxic
12 | O=C(Cn1ccnc1[N+](=O)[O-])NCc1ccccc1 [BENZNIDAZOLE] | Non-Toxic
13 | CC(=O)Oc1ccccc1C1OC(c2cc(-c3ccccc3)nc3c2c(C)nn3-c2ccccc2)=NN1C(C)=O (stereo not drawn) | Non-Toxic

Tested on: not listed separately
Assay: Cardiac toxicity in BALB/c mouse infected with blood trypomastigote form of Trypanosoma cruzi strain Y assessed as CK-MB level in plasma at 25 mg/kg, po administered via gavage daily for 15 days starting from 2 days post-infection and measured on 16th day post-infection
Assay type: organism-based
Conditions: in vivo, 360 h, time 15 day

Row | SMILES | Activity
14 | Cc1nn(-c2ccccc2)c2nc(-c3ccccc3)cc(C(=O)N/N=C/c3ccccc3O)c12 | Toxic
15 | O=C(Cn1ccnc1[N+](=O)[O-])NCc1ccccc1 [BENZNIDAZOLE] | Non-Toxic
16 | CC(=O)Oc1ccccc1C1OC(c2cc(-c3ccccc3)nc3c2c(C)nn3-c2ccccc2)=NN1C(C)=O (stereo not drawn) | Non-Toxic

Tested on: Trypanosoma cruzi
Assay: Antitrypanosomal activity against blood trypomastigote form of Trypanosoma cruzi strain Y infected in BALB/c mouse assessed as reduction in amastigote nest in host heart at 25 mg/kg, po administered via gavage daily for 15 days starting from 2 days post-infection and measured on 16th day post-infection by haematoxylin and eosin staining based microscopic analysis
Assay type: functional
Conditions: 360 h, time 15 day

Row | SMILES | inhibition in vivo at 25 mg/kg
17 | O=C(Cn1ccnc1[N+](=O)[O-])NCc1ccccc1 [BENZNIDAZOLE] | 100%
18 | CC(=O)Oc1ccccc1C1OC(c2cc(-c3ccccc3)nc3c2c(C)nn3-c2ccccc2)=NN1C(C)=O (stereo not drawn) | 57%

Same assay, conditions: time 15.0 day

Row | SMILES | Activity
19 | Cc1nn(-c2ccccc2)c2nc(-c3ccccc3)cc(C(=O)N/N=C/c3ccccc3O)c12 | inactive

Tested on: Trypanosoma cruzi
Assay: Antitrypanosomal activity against blood trypomastigote form of Trypanosoma cruzi strain Y infected in BALB/c mouse assessed as reduction in parasite DNA load in host heart at 25 mg/kg, po administered via gavage daily for 15 days starting from 2 days post-infection and measured on 16th day post-infection by qPCR analysis relative to control
Assay type: functional
Conditions: 360 h, time 15 day

Row | SMILES | inhibition in vivo at 25 mg/kg
20 | O=C(Cn1ccnc1[N+](=O)[O-])NCc1ccccc1 [BENZNIDAZOLE] | 99%

Same assay, conditions: time 15.0 day

Row | SMILES | Activity
21 | Cc1nn(-c2ccccc2)c2nc(-c3ccccc3)cc(C(=O)N/N=C/c3ccccc3O)c12 | inactive
22 | CC(=O)Oc1ccccc1C1OC(c2cc(-c3ccccc3)nc3c2c(C)nn3-c2ccccc2)=NN1C(C)=O (stereo not drawn) | inactive

Tested on: Trypanosoma cruzi
Assay: Antitrypanosomal activity against blood trypomastigote form of Trypanosoma cruzi strain Y infected in BALB/c mouse assessed as reduction in parasitemia at 25 mg/kg, po administered via gavage daily for 15 days starting from 2 days post-infection and measured on 7th day post-infection by optical microscopy relative to control
Assay type: functional
Conditions: 360 h, time 15 day

Row | SMILES | inhibition in vivo at 25 mg/kg
23 | Cc1nn(-c2ccccc2)c2nc(-c3ccccc3)cc(C(=O)N/N=C/c3ccccc3O)c12 | 44.7%
24 | CC(=O)Oc1ccccc1C1OC(c2cc(-c3ccccc3)nc3c2c(C)nn3-c2ccccc2)=NN1C(C)=O (stereo not drawn) | 46.1%

Tested on: Trypanosoma cruzi
Assay: Antitrypanosomal activity against blood trypomastigote form of Trypanosoma cruzi strain Y infected in BALB/c mouse assessed as reduction in parasitemia at 25 mg/kg, po administered via gavage daily for 15 days starting from 2 days post-infection and measured on 13th day post-infection by optical microscopy relative to control
Assay type: functional
Conditions: 360 h, time 15 day

Row | SMILES | inhibition in vivo at 25 mg/kg
25 | Cc1nn(-c2ccccc2)c2nc(-c3ccccc3)cc(C(=O)N/N=C/c3ccccc3O)c12 | 14.5%
26 | CC(=O)Oc1ccccc1C1OC(c2cc(-c3ccccc3)nc3c2c(C)nn3-c2ccccc2)=NN1C(C)=O (stereo not drawn) | 53%

Tested on: not listed separately
Assay: Selectivity index, ratio of CC50 for monkey LLC-MK2 cells to IC50 for antitrypanosomal activity against intracellular amastigote form of Trypanosoma cruzi Tulahuen strain infected in monkey LLC-MK2 cells
Assay type: toxicity, cell-based
Conditions: read-out: Ratio CC50/IC50

Row | SMILES | selectivity ratio
27 | Cc1nn(-c2ccccc2)c2nc(-c3ccccc3)cc(C(=O)N/N=C/c3ccccc3O)c12 | > 235
28 | O=C(Cn1ccnc1[N+](=O)[O-])NCc1ccccc1 [BENZNIDAZOLE] | > 50.2
29 | CC(=O)Oc1cccc(C2OC(c3cc(-c4ccccc4)nc4c3c(C)nn4-c3ccccc3)=NN2C(C)=O)c1 (stereo not drawn) | > 6.15
30 | CC(=O)Oc1ccc(C2OC(c3cc(-c4ccccc4)nc4c3c(C)nn4-c3ccccc3)=NN2C(C)=O)cc1OC(C)=O (stereo not drawn) | 1.6
31 | CC(=O)Oc1ccc(C2OC(c3cc(-c4ccccc4)nc4c3c(C)nn4-c3ccccc3)=NN2C(C)=O)cc1 (stereo not drawn) | 2.86
32 | CC(=O)Oc1ccccc1C1OC(c2cc(-c3ccccc3)nc3c2c(C)nn3-c2ccccc2)=NN1C(C)=O (stereo not drawn) | > 90.1
33 | CC(=O)N1N=C(c2cc(-c3ccccc3)nc3c2c(C)nn3-c2ccccc2)OC1c1ccc(O)cc1 (stereo not drawn) | 1.94
34 | CC(=O)N1N=C(c2cc(-c3ccccc3)nc3c2c(C)nn3-c2ccccc2)OC1c1cccc(O)c1 (stereo not drawn) | 1.63
35 | Cc1nn(-c2ccccc2)c2nc(-c3ccccc3)cc(C(=O)N/N=C/c3ccc(O)cc3)c12 | > 250
36 | COc1ccc(/C=N/NC(=O)c2cc(-c3ccccc3)nc3c2c(C)nn3-c2ccccc2)cc1O | 2.52
37 | Cc1nn(-c2ccccc2)c2nc(-c3ccccc3)cc(C(=O)N/N=C/c3cccc(O)c3)c12 | 3
38 | Cc1nn(-c2ccccc2)c2nc(-c3ccccc3)cc(C(=O)N/N=C/c3ccc(O)c(O)c3)c12 | 3.11

Tested on: not listed separately
Assay: Cytotoxicity against monkey LLC-MK2 cells assessed as reduction in cell viability incubated for 72 hrs by MTT assay
Assay type: cell-based, Macaca mulatta
Conditions: rhesus monkey

Row | SMILES | CC50 at 72 h
39 | Cc1nn(-c2ccccc2)c2nc(-c3ccccc3)cc(C(=O)N/N=C/c3ccccc3O)c12 | > 200 µM
40 | O=C(Cn1ccnc1[N+](=O)[O-])NCc1ccccc1 [BENZNIDAZOLE] | > 200 µM
41 | CC(=O)Oc1cccc(C2OC(c3cc(-c4ccccc4)nc4c3c(C)nn4-c3ccccc3)=NN2C(C)=O)c1 (stereo not drawn) | > 100 µM
42 | CC(=O)Oc1ccc(C2OC(c3cc(-c4ccccc4)nc4c3c(C)nn4-c3ccccc3)=NN2C(C)=O)cc1OC(C)=O (stereo not drawn) | 54.5 µM
43 | CC(=O)Oc1ccc(C2OC(c3cc(-c4ccccc4)nc4c3c(C)nn4-c3ccccc3)=NN2C(C)=O)cc1 (stereo not drawn) | 64.8 µM
44 | CC(=O)Oc1ccccc1C1OC(c2cc(-c3ccccc3)nc3c2c(C)nn3-c2ccccc2)=NN1C(C)=O (stereo not drawn) | > 100 µM
45 | CC(=O)N1N=C(c2cc(-c3ccccc3)nc3c2c(C)nn3-c2ccccc2)OC1c1ccc(O)cc1 (stereo not drawn) | 34.4 µM
46 | CC(=O)N1N=C(c2cc(-c3ccccc3)nc3c2c(C)nn3-c2ccccc2)OC1c1cccc(O)c1 (stereo not drawn) | 17.2 µM
47 | Cc1nn(-c2ccccc2)c2nc(-c3ccccc3)cc(C(=O)N/N=C/c3ccc(O)cc3)c12 | > 250 µM
48 | COc1ccc(/C=N/NC(=O)c2cc(-c3ccccc3)nc3c2c(C)nn3-c2ccccc2)cc1O | 53 µM
49 | Cc1nn(-c2ccccc2)c2nc(-c3ccccc3)cc(C(=O)N/N=C/c3cccc(O)c3)c12 | 69.6 µM
50 | Cc1nn(-c2ccccc2)c2nc(-c3ccccc3)cc(C(=O)N/N=C/c3ccc(O)c(O)c3)c12 | 71.2 µM

Tested on: Trypanosoma cruzi
Assay: Antitrypanosomal activity against intracellular amastigote form of Trypanosoma cruzi Tulahuen strain infected in monkey LLC-MK2 cells assessed as reduction in parasite viability incubated for 72 hrs by beta-galactosidase reporter gene assay
Assay type: functional, organism-based
Conditions: Trypanosoma cruzi, Tulahuen, LLC-MK2, 72 h; read-out: IC50

Row | SMILES | IC50
51 | Cc1nn(-c2ccccc2)c2nc(-c3ccccc3)cc(C(=O)N/N=C/c3ccccc3O)c12 | 0.85 µM
52 | O=C(Cn1ccnc1[N+](=O)[O-])NCc1ccccc1 [BENZNIDAZOLE] | 3.98 µM
53 | CC(=O)Oc1cccc(C2OC(c3cc(-c4ccccc4)nc4c3c(C)nn4-c3ccccc3)=NN2C(C)=O)c1 (stereo not drawn) | 16.2 µM
54 | CC(=O)Oc1ccc(C2OC(c3cc(-c4ccccc4)nc4c3c(C)nn4-c3ccccc3)=NN2C(C)=O)cc1OC(C)=O (stereo not drawn) | 33.9 µM
55 | CC(=O)Oc1ccc(C2OC(c3cc(-c4ccccc4)nc4c3c(C)nn4-c3ccccc3)=NN2C(C)=O)cc1 (stereo not drawn) | 22.6 µM
56 | CC(=O)Oc1ccccc1C1OC(c2cc(-c3ccccc3)nc3c2c(C)nn3-c2ccccc2)=NN1C(C)=O (stereo not drawn) | 1.11 µM
57 | CC(=O)N1N=C(c2cc(-c3ccccc3)nc3c2c(C)nn3-c2ccccc2)OC1c1ccc(O)cc1 (stereo not drawn) | 17.7 µM
58 | CC(=O)N1N=C(c2cc(-c3ccccc3)nc3c2c(C)nn3-c2ccccc2)OC1c1cccc(O)c1 (stereo not drawn) | 10.5 µM
59 | Cc1nn(-c2ccccc2)c2nc(-c3ccccc3)cc(C(=O)N/N=C/c3ccc(O)cc3)c12 | 21.4 µM
60 | COc1ccc(/C=N/NC(=O)c2cc(-c3ccccc3)nc3c2c(C)nn3-c2ccccc2)cc1O | 21 µM
61 | Cc1nn(-c2ccccc2)c2nc(-c3ccccc3)cc(C(=O)N/N=C/c3cccc(O)c3)c12 | 23.2 µM
62 | Cc1nn(-c2ccccc2)c2nc(-c3ccccc3)cc(C(=O)N/N=C/c3ccc(O)c(O)c3)c12 | 22.9 µM

Same assay, conditions: llc-mk2

Row | SMILES | IC50
63 | COc1ccc(C2OC(c3cc(-c4ccccc4)nc4c3c(C)nn4-c3ccccc3)=NN2C(C)=O)cc1OC(C)=O (stereo not drawn) | Nd(Insoluble)
